US20230047825A1, “ANTIMICROBIAL PEPTIDES” (priority 2019, published 2023)
Values after ≈ are worked out from the molar mass of the structure shown. Where two headings read alike, the source gives them in different places.

Columns and labels:
Experiment in all cases: microbe, parasite or virus in culture
[1] = test system: Staphylococcus aureus VRS-2 (VanA, VRSA); design: MIC, antibiotic susceptibility: unit not given beside the values; conditions: for MIC: Staphylococcus aureus, VRSA; for MIC, antibiotic susceptibility: unit not given
Procedure: (§1) The S. aureus strains ATCC 29213, ATCC 19636, ATCC 33591 (MRSA), BAA-1556 (MRSA USA 300) were obtained from the American Type Culture Collection (ATCC). […] The species identity was confirmed with 16S rRNA analysis.
(§2) Two broth mediums were used, Mueller Hinton Broth and RPMI 1640+5% fetal bovine serum. Test substances were evaluated in 11-point titrations and performed in duplicate.
(§3) The direct colony suspension method was used to prepare inoculated broth. Isolated colonies were taken from an 18-24 h culture plate. Optical density measurements (OD620nm) were used to estimate the bacterial density. […] The stock solutions were diluted by 2-fold serial titrations with their respective vehicles for a total of 11 concentrations.
(§4) A 4 μL aliquot of each dilution was added to 196 μL of broth medium seeded with the organism in wells of a sterilized 96 well polypropylene plate (Nunc™ 249949) using aluminum foil as cover. The final bacterial count was 2 to 8×10^5 CFU/mL. […] The final test article concentration range was 32 to 0.0313 μg/mL.
(§5) Each test substance dilution was evaluated in duplicate on one test occasion. […] Plates were incubated at 35-37° C. for 18 h. The test plates were visually examined and each well was visually scored for growth or complete inhibition of growth. The MIC value was recorded.

[2] = test system: Staphylococcus aureus ATCC 33591 (MRSA); conditions: for MIC: Staphylococcus aureus
Procedure: as §1, §2, §3, §4, §5

[3] = test system: Staphylococcus aureus ATCC 29213; conditions: for MIC: Staphylococcus aureus; for susceptibility category (CLSI M100 interpretive criteria) / MIC, antibiotic susceptibility: ATCC 29213
Procedure: as §1, §2, §3, §4, §5

[4] = test system: Staphylococcus aureus ATCC 19636 (Smith)
Procedure: as §1, §2, §3, §4, §5

[5] = test system: Staphylococcus aureus ATCC BAA-1556 (USA300, MRSA)
Procedure: as §1, §2, §3, §4, §5

[6] = 18 h, read-out: MIC, antibiotic susceptibility, VRS-2, CLSI M7-A10, unit inferred
[7] = ATCC33591|MRSA, 18 h, read-out: MIC, antibiotic susceptibility, ATCC 33591, CLSI M7-A10, unit inferred
[8] = ATCC29213, 18 h, read-out: MIC, antibiotic susceptibility, ATCC 29213, CLSI M7-A10, unit inferred
[9] = Staphylococcus aureus, ATCC19636, 18 h, read-out: MIC, antibiotic susceptibility
[10] = Staphylococcus aureus, ATCCBAA1556|BAA1556|MRSA|USA300, 18 h, read-out: MIC, antibiotic susceptibility

Molecule	MIC [1, 6] [µg/mL]	MIC [2, 7] [µg/mL]	MIC [3, 8] [µg/mL]	MIC [4, 9] [µg/mL]	MIC [5, 10] [µg/mL]	susceptibility category (CLSI M100 interpretive criteria) ([1]; VRS-2)	susceptibility category (CLSI M100 interpretive criteria) ([2]; ATCC 33591)	susceptibility category (CLSI M100 interpretive criteria) [3]	susceptibility category (CLSI M100 interpretive criteria) ([4]; ATCC 19636 (Smith))	susceptibility category (CLSI M100 interpretive criteria) ([5]; BAA-1556)	also measured
CO/N=C(\C(=O)N[C@@H]1C(=O)N2C(C(=O)[O-])=C(C[N+]3(C)CCCC3)CS[C@H]12)c1csc(N)n1 [Cefepime]	> 64	> 64	2 to 4 (≈ 4.16 to 8.32 µM)	2 (≈ 4.16 µM)	16 to 64 (≈ 33.3 to 133 µM)						
Cc1onc(-c2ccccc2)c1C(=O)N[C@@H]1C(=O)N2[C@@H]1SC(C)(C)[C@@H]2C(=O)O [Oxacillin]	> 64	> 64	0.25 to 0.5 (≈ 0.623 to 1.25 µM)	0.25 (≈ 0.623 µM)	64 (≈ 159 µM)	R	R	S	S	R	
CC[C@H]1OC(=O)[C@H](C)[C@@H](O[C@H]2C[C@@](C)(OC)[C@@H](O)[C@H](C)O2)[C@H](C)[C@@H](O[C@@H]2O[C@H](C)C[C@H](N(C)C)[C@H]2O)[C@](C)(O)C[C@@H](C)C(=O)[C@H](C)[C@@H](O)[C@]1(C)O [Erythromycin]	> 64	> 64	0.25 to 1 (≈ 0.341 to 1.36 µM)	0.25 to 1 (≈ 0.341 to 1.36 µM)	> 64	R	R	S-I	S-I	R	
CC(=O)NC[C@H]1CN(c2ccc(N3CCOCC3)c(F)c2)C(=O)O1 [Linezolid]	2 (≈ 5.93 µM)	0.5 to 1 (≈ 1.48 to 2.96 µM)	2 to 4 (≈ 5.93 to 11.9 µM)	2 to 4 (≈ 5.93 to 11.9 µM)	2 (≈ 5.93 µM)	S	S	S	S	S	MIC ([1]; VRS-2, MHB): 2 µg/mL (≈ 5.93 µM); MIC ([1]; VRS-2, RPMI + 5% FBS): 1 µg/mL; MIC ([2]; ATCC 33591, MHB): 2 µg/mL (≈ 5.93 µM); MIC ([2]; ATCC 33591, RPMI + 5% FBS): 1 µg/mL; MIC ([3]; ATCC29213, ATCC 29213, MHB): 4 µg/mL (≈ 11.9 µM); MIC ([3]; ATCC29213, ATCC 29213, RPMI + 5% FBS): 2 µg/mL; MIC ([4]; ATCC 19636 (Smith), MHB): 2 µg/mL (≈ 5.93 µM); MIC ([5]; ATCC BAA-1556, MHB): 2 µg/mL (≈ 5.93 µM)
Teicoplanin								S			MIC, antibiotic susceptibility ([3]; CLSI M7-A10, unit inferred): 0.25 µg/mL
C[C@H]1COc2c(N3CCN(C)CC3)c(F)cc3c(=O)c(C(=O)O)cn1c23 [Levofloxacin]	32 (≈ 88.6 µM)	0.25 (≈ 0.692 µM)	0.125 to 0.25 (≈ 0.346 to 0.692 µM)	0.125 (≈ 0.346 µM)	4 to 8 (≈ 11.1 to 22.1 µM)	R	S	S	S	R	
C[C@@H](O)[C@H]1C(=O)N2C(C(=O)O)=C(S[C@@H]3CN[C@H](C(=O)N(C)C)C3)[C@H](C)[C@H]12 [Meropenem]			0.0625 (≈ 0.163 µM)								
C/C(=C\C(=O)OCCCCCCCCC(=O)O)C[C@@H]1OC[C@H](C[C@@H]2O[C@H]2[C@@H](C)[C@H](C)O)[C@@H](O)[C@H]1O [Mupirocin]	1 to 2 (≈ 2 to 3.99 µM)	1 to 2 (≈ 2 to 3.99 µM)	0.25 to 2 (≈ 0.499 to 3.99 µM)	1 (≈ 2 µM)	> 64						
C[C@@H](O)[C@H]1C(=O)N2C(C(=O)O)=C(SCCN=CN)C[C@H]12 [Imipenem]	> 16	≥ 16	0.016 to 0.031 (≈ 0.0534 to 0.104 µM)	≤ 0.016	0.125 to 0.25 (≈ 0.418 to 0.835 µM)						
CN(C)c1cc(NC(=O)CNC(C)(C)C)c(O)c2c1C[C@H]1C[C@H]3[C@H](N(C)C)C(O)=C(C(N)=O)C(=O)[C@@]3(O)C(O)=C1C2=O [Tigecycline]				0.125 to 0.25 (≈ 0.213 to 0.427 µM)	0.25 (≈ 0.427 µM)						MIC ([1]; 18 h, read-out: MIC, antibiotic susceptibility): 0.25 µg/mL (≈ 0.427 µM); MIC ([2]; ATCC33591|MRSA, 18 h, read-out: MIC, antibiotic susceptibility): 0.25 to 0.5 µg/mL (≈ 0.427 to 0.854 µM); MIC ([3]; ATCC29213, 18 h, read-out: MIC, antibiotic susceptibility): 0.125 to 0.25 µg/mL (≈ 0.213 to 0.427 µM)
Gentamicin						R	S	S	S	S	MIC, antibiotic susceptibility ([1]; VRS-2, CLSI M7-A10, in µg/mL (unit assumed)): 32-64; MIC, antibiotic susceptibility ([2]; ATCC 33591, CLSI M7-A10, unit not given, in µg/mL): 0.25-1; MIC, antibiotic susceptibility ([3]; CLSI M7-A10, unit inferred): 0.25 µg/mL; MIC, antibiotic susceptibility ([4]; ATCC 19636 (Smith), CLSI M7-A10, unit inferred): 0.25 µg/mL; MIC, antibiotic susceptibility ([5]; BAA-1556, CLSI M7-A10, unit not given, in µg/mL (unit assumed)): 0.25-0.5
CCCCCCCCCC(=O)N[C@@H](Cc1c[nH]c2ccccc12)C(=O)N[C@H](CC(N)=O)C(=O)N[C@@H](CC(=O)O)C(=O)N[C@@H]1C(=O)NCC(=O)N[C@@H](CCCN)C(=O)N[C@@H](CC(=O)O)C(=O)N[C@H](C)C(=O)N[C@@H](CC(=O)O)C(=O)NCC(=O)N[C@H](CO)C(=O)N[C@@H]([C@H](C)CC(=O)O)C(=O)N[C@@H](CC(=O)c2ccccc2N)C(=O)O[C@@H]1C [Daptomycin]	0.25 (≈ 0.154 µM)	0.5 (≈ 0.309 µM)	0.125 to 0.5 (≈ 0.0771 to 0.309 µM)	0.25 (≈ 0.154 µM)	0.25 (≈ 0.154 µM)	S	S	S	S	S	
CO/N=C(\C(=O)N[C@@H]1C(=O)N2C(C(=O)O)=C(CSc3nc(=O)c(=O)[nH]n3C)CS[C@H]12)c1csc(N)n1 [Ceftriaxone]	> 64	> 64	4 (≈ 7.21 µM)	4 (≈ 7.21 µM)	≥ 64						
CCC[C@@H]1C[C@@H](C(=O)N[C@@H]([C@H]2O[C@H](SC)[C@H](O)[C@@H](O)[C@H]2O)[C@H](C)Cl)N(C)C1 [Clindamycin]	> 64	> 64	0.125 (≈ 0.294 µM)	0.125 (≈ 0.294 µM)	> 64	R	R	S	S	R	
Trimethoprim/sulfamethoxazole						R	S	S	S	S	MIC, antibiotic susceptibility ([1]; VRS-2, CLSI M7-A10): >8/152
